# Measurements: patent publication US20240228507A1, “GREEN SOLVENTS FOR CHEMICAL REACTIONS” (ECOLE POLYTECHNIQUE FÉDÉRALE DE LAUSANNE (EPFL), priority 2021, published 2024)
# Columns and labels:
# [1] = Kamlet-Abboud-Taft solvatochromic parameters (dye absorption spectra); format: physicochemical; details: for Kamlet-Taft Parameters Π* / Kamlet-Taft Parameters α / Kamlet-Taft Parameters β: Table 1a; for Kamlet-Abboud-Taft α / Kamlet-Abboud-Taft β / Kamlet-Abboud-Taft π: Table 1c; for Kamlet-Taft Π* / Kamlet-Taft α / Kamlet-Taft β: Table 4
# From the text: Determination of the Kamlet-Abboud-Taft parameters was based on the absorption spectrum of two dyes (N,N-diethyl-4-nitroaniline and 4-nitroaniline) in different solvents, that allow calculating corresponding values using known procedures (P. G. Jessop, D. A. Jessop, D. Fu and L. Phan, Green Chem., 2012, 14, 1245-1259).
# [2] = Maximum absorbance of Nile Red dye in the solvent; format: physicochemical
# Method: The absorbance spectra of 4-nitroaniline dye (cf. FIG. 10a), N,N-diethyl-4-nitroaniline dye (cf. FIG. 10b) as well as of Nile Red dye (cf. FIG. 10c) in the compounds 1, 3, 4 and 24 of claim 13 as well as in DMSO were measured. Nile Red absorbance is dependent on polarity and acidity, but as acidity is 0 in the case of aprotic solvents, the value is only polarity dependent. This differs from π*, which is both polarity and polarizability dependent. The maximum absorbance of Nile Red in 1, 3, 4 and 24 was measured to be 543, 536, 534.5 and 535 nm respectively. […] Values for 3, 4 and 24 are similar to conventional medium polarity aprotic solvents such as dichloromethane (535.2 nm) and acetonitrile (531.6 nm).
# The Nile red value for DEX:PG is 553 nm, indicating similar chemical behavior to Methanol (550 nm) and Ethanolamine (557 nm).
# Flash point = format: physicochemical
# [3] = Stability of DFX under basic conditions (GC-FID/GC-MS, colour change); format: physicochemical; details: Pyridine and KOAc
# Method: To assess DFX stability under basic conditions, we tested a series of organic and inorganic bases at 80° C. and 110° C. for maximum 48 h (Table 6). Visual color change compared to a blank solution of pure DFX indicated some reactions were occurring. After 0.5 h, 24 h, 48 h of exposure, the samples were injected in GC-FID and GC-MS and the area of DFX was compared with the one in blank sample using decane as the internal standard. As a result of this experiment, we identified some potential limitations of this emerging solvent. Specifically, inorganic bases such as K2CO3, NaOH, CsCO3 led to the highest extent of degradation (maximum 21% after 48 h). Triethylamine (NEt3) caused less than 5% of degradation, but led to the formation of dark solution as well as K2CO3, NaOH, CsCO3. Probably, impurities existing in DFX (95% pure) also contribute to a color change as they could interact with bases.
# [4] = Miscibility with different solvents; format: physicochemical; set-up: key: “*” indicating—not miscible; details: Table 1d; blank cell = miscible
# [5] = Stability under acidic conditions; format: physicochemical
compound,measurement,setting,value
"C1COCCO1 [1,4-dioxane]",Kamlet-Taft Parameters Π*,[1],0.55
same,Kamlet-Taft Parameters α,[1],0.00
same,Kamlet-Taft Parameters β,[1],0.37
same,Kamlet-Abboud-Taft α,[1],0
same,Kamlet-Abboud-Taft β,[1],0.37
same,Kamlet-Abboud-Taft π,[1],0.55
"CC(C)=O [Acetone, acetone]",Kamlet-Taft Π*,[1],0.71
same,Kamlet-Taft α,[1],0.08
same,Kamlet-Taft β,[1],0.48
"CC#N [Acetonitrile, acetonitrile]",maximum absorbance of Nile Red,[2],531.6 nm
same,Kamlet-Taft Π*,[1],0.8
same,Kamlet-Taft α,[1],0.35
same,Kamlet-Taft β,[1],0.37
"COC1CCCC1 [CPME, cyclopentyl methyl ether]",Flash point,Flash point,−1 °C
"C1OC[C@H]2O[C@@H]3OCO[C@@H]3[C@H]2O1 [Compound 1, Diformylxylose]",effect on stability,[3],didn't show any significant effect
same,melting point,,48 °C
CC1CCCO1 (centres unmarked) [Compound 2-Me-THF],Flash point,Flash point,−10 °C
"CC1CCCO1 (centres unmarked) [Compound 2-MeTHF, 2-methyltetrahydrofuran]",Kamlet-Abboud-Taft α,[1],0
same,Kamlet-Abboud-Taft β,[1],0.58
same,Kamlet-Abboud-Taft π,[1],0.53
CC1OC[C@H]2O[C@@H]3OC(C)O[C@@H]3[C@H]2O1 (some centres unmarked) [Compound 2],melting point,,60 °C
CCC1OC[C@H]2O[C@@H]3OC(CC)O[C@@H]3[C@H]2O1 (some centres unmarked) [Compound 3],maximum absorbance of Nile Red,[2],536 nm
same,Kamlet-Abboud-Taft α,[1],0
same,Kamlet-Abboud-Taft β,[1],0.63
same,Kamlet-Abboud-Taft π,[1],0.68
same,melting point,,34 °C
CC(C)C1OC[C@H]2O[C@@H]3OC(C(C)C)O[C@@H]3[C@H]2O1 (some centres unmarked) [Compound 4],maximum absorbance of Nile Red,[2],534.5 nm
same,Kamlet-Abboud-Taft α,[1],0
same,Kamlet-Abboud-Taft β,[1],0.51
same,Kamlet-Abboud-Taft π,[1],0.63
same,melting point,,31 °C
CC(C)(C)C1OC[C@H]2O[C@@H]3OC(C(C)(C)C)O[C@@H]3[C@H]2O1 (some centres unmarked) [Compound 5],melting point,,120 °C
CC1(C)OC[C@H]2O[C@@H]3OC(C)(C)O[C@@H]3[C@H]2O1 [Compound 11],melting point,,43 °C
COC(=O)C1OC[C@H]2O[C@@H]3OC(C(=O)OC)O[C@@H]3[C@H]2O1 (some centres unmarked) [Compound 14],melting point,,83 °C
CCCC1OC[C@H]2O[C@@H]3OC(CCC)O[C@@H]3[C@H]2O1 (some centres unmarked) [Compound 24],maximum absorbance of Nile Red,[2],535 nm
same,Kamlet-Abboud-Taft α,[1],0
same,Kamlet-Abboud-Taft β,[1],0.56
same,Kamlet-Abboud-Taft π,[1],0.65
same,melting point,,24.5 °C
same,Miscibility with Water,[4],*
"C1CCCCC1 [Cyclohexane, cyclohexane]",Kamlet-Abboud-Taft α,[1],0
same,Kamlet-Abboud-Taft β,[1],0
same,Kamlet-Abboud-Taft π,[1],0
O=C1CC[C@H]2CO[C@@H]1O2 [Cyrene],Kamlet-Taft Parameters Π*,[1],0.93
same,Kamlet-Taft Parameters α,[1],0.00
same,Kamlet-Taft Parameters β,[1],0.61
same,stability under acidic conditions,"[5]; 95° C. or 70° C., 0.8M HCl, 15 min",extensive degradation
same,Flash point,Flash point,108 °C
"CCCC1OCC2OC3OC(CCC)OC3C2O1 (centres unmarked) [DBX, Dibutylxylose]","sensitivity to strong acids (visual, orange-colored solution)",[5],showed sensitivity to strong acids
"CC(C)C1OCC2OC3OC(C(C)C)OC3C2O1 (centres unmarked) [DIBX, Diisobutylxylose]","sensitivity to strong acids (visual, orange-colored solution)",[5],showed sensitivity to strong acids
"CN(C)C=O [DMF, N,N-dimethylformamide]",maximum absorbance of Nile Red,[2],541 nm
"C[S+](C)[O-] [DMSO, dimethyl sulfoxide]",Kamlet-Taft Parameters Π*,[1],1.00
same,Kamlet-Taft Parameters α,[1],0.00
same,Kamlet-Taft Parameters β,[1],0.74
"CC(C)(C)C1OCC2OC3OC(C(C)(C)C)OC3C2O1 (centres unmarked) [DNPX, Dineopentylxylose]","sensitivity to strong acids (visual, orange-colored solution)",[5],showed sensitivity to strong acids
"CCC1OCC2OC3OC(CC)OC3C2O1 (centres unmarked) [DPX, Dipropylxylose]","sensitivity to strong acids (visual, orange-colored solution)",[5],showed sensitivity to strong acids
NCCO [Ethanolamine],maximum absorbance of Nile Red,[2],557 nm
O=C1OCCO1 [Ethylene carbonate],Kamlet-Taft Parameters Π*,[1],0.99
same,Kamlet-Taft Parameters α,[1],0.00
same,Kamlet-Taft Parameters β,[1],0.32
"CC1CCC(=O)O1 (centres unmarked) [GVL, -valerolactone]",Kamlet-Taft Parameters Π*,[1],0.83
same,Kamlet-Taft Parameters α,[1],0.00
same,Kamlet-Taft Parameters β,[1],0.60
same,Flash point,Flash point,96.1 °C
COC(C)(C)C [MTBE],Flash point,Flash point,−28 °C
"CO [Methanol, methanol]",maximum absorbance of Nile Red,[2],550 nm
CCCCN1CCCC1=O [N-butylpyrrolidinone],Kamlet-Taft Parameters Π*,[1],0.77
same,Kamlet-Taft Parameters α,[1],0.00
same,Kamlet-Taft Parameters β,[1],0.92
O=S1(=O)CCCC1 [Sulfolane],maximum absorbance of Nile Red,[2],545 nm
same,Kamlet-Taft Parameters Π*,[1],0.98
same,Kamlet-Taft Parameters α,[1],0.00
same,Kamlet-Taft Parameters β,[1],0.39
"C1CCOC1 [THF, Tetrahydrofuran]",Kamlet-Abboud-Taft α,[1],0
same,Kamlet-Abboud-Taft β,[1],0.55
same,Kamlet-Abboud-Taft π,[1],0.58
ClCCl [dichloromethane],maximum absorbance of Nile Red,[2],535.2 nm
